The record followed here is patent publication US8354403B2, “Pyrrolidine derived beta 3 adrenergic receptor agonists” (Merck Sharp & Dohme Corp., priority 2009, dated 2013).

Where a name gives a salt, the structure may show the parent alone.

For the first assay, the target named is T1, human β3 adrenergic receptor (Homo sapiens, UniProt P13945).
T1 construct: expressed in transfected cells; host or cells: Chinese hamster ovary (CHO) cells, stably transfected
T1 sequence (P13945 whole entry): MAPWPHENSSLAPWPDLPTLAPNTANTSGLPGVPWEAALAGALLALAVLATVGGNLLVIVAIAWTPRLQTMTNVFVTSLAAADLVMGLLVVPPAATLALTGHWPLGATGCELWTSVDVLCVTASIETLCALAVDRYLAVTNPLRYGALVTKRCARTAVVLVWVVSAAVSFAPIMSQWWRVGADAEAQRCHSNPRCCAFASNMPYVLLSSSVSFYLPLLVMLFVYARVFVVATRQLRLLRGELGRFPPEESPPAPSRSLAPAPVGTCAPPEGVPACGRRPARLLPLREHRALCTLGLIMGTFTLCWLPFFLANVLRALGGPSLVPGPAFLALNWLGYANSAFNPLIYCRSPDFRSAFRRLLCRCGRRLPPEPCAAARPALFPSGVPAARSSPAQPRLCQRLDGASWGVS
The experiment in a line: Beta-3 agonist in vitro functional assay: cAMP production (LANCE TR-FRET) in CHO cells stably transfected with the cloned β3 receptor. Format: cell-based. Conditions: Table 4; cAMP, CHO cells; read-out: Human β3 agonist functional activity. In short, it runs like this:
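CHO cells stably expressing the cloned receptor, in HEPES-buffered HBSS with BSA and 0.6 mM IBMX, 6,000 cells/well, exposed to compound for 30 min at RT. cAMP read by LANCE TR-FRET against a cAMP standard curve. Isoproterenol defines maximal stimulation.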
In the case of `O=C(c1ccc(C[C@@H]2CC[C@H]([C@H](O)c3ccccc3)N2)cc1)N1CCCC2(CCc3cc(F)ccc3O2)C1` (stereo partly drawn) [Example 44], the EC50 lay in the range of 100 to 999 nM.
Same read-out and setting: the same measure for `O=C(c1ccc(C[C@@H]2CC[C@H]([C@H](O)c3ccccc3)N2)cc1)N1CC(Oc2cncc(Cl)n2)C1` [Example 3]: 100 to 999 nM; for `O=C(c1ccc(C[C@@H]2CC[C@H]([C@H](O)c3ccccc3)N2)cc1)N1CC2CCC(C1)C2n1cnnn1` (stereo partly drawn) [Example 63]: 1 to 9.9 nM.
Same read-out and setting: the same measure for `O=C(c1ccc(C[C@@H]2CC[C@H]([C@H](O)c3cccnc3)N2)cc1)N1CCC2c3ccccc3OC2C1` (stereo partly drawn) [Example 57]: 1 to 9.9 nM; for `O=C(c1ccc(C[C@@H]2CC[C@H]([C@H](O)c3ccccc3)N2)cc1)N1CC2CC(n3ncnn3)CC2C1` (stereo partly drawn) [Example 19]: 10 to 99.9 nM.
Consider `O=C(c1ccc(C[C@@H]2CC[C@H]([C@H](O)c3ccccc3)N2)cc1)N1Cc2cncnc2C1` [Example 25], for which the EC50 was in the range of 100 to 999 nM.

Staying with this assay, now noted: Table 5; cAMP, CHO cells; read-out: Human β3 agonist functional activity.
Turning to `O=C(c1ccc(C[C@@H]2CC[C@H]([C@H](O)c3ccccc3)N2)cc1)N1CCC(COc2cnccn2)CC1` [Example 161], the EC50 was in the range of 10 to 99.9 nM.
For the compound `COc1ccc(CC2CCN(C(=O)c3ccc(C[C@@H]4CC[C@H]([C@H](O)c5ccccc5)N4)cc3)CC2)cc1F` [Example 147], the EC50 lay within 10 to 99.9 nM.
On the same count and under the same terms, the same measure for `O=C(c1ccc(C[C@@H]2CC[C@H]([C@H](O)c3ccccc3)N2)cc1)N1CCC(S(=O)(=O)c2cc(F)ccc2F)CC1` [Example 140]: 10 to 99.9 nM; for `O=C(c1ccc(C[C@@H]2CC[C@H]([C@H](O)c3ccccc3)N2)cc1)N1CCC(S(=O)(=O)c2ccc(F)cc2F)CC1` [Example 139]: 10 to 99.9 nM; for `COC(=O)c1cc(OC2CCN(C(=O)c3ccc(C[C@@H]4CC[C@H]([C@H](O)c5ccccc5)N4)cc3)CC2)no1` [Example 159]: 100 to 999 nM.
On to `O=C(c1ccc(C[C@@H]2CC[C@H]([C@H](O)c3ccccc3)N2)cc1)N1CCC(n2cncn2)CC1` [Example 92], for which the EC50 lay in the range of 10 to 99.9 nM.
The same measure, in the same setting: the same measure for `O=C(c1ccc(C[C@@H]2CC[C@H]([C@H](O)c3ccccc3)N2)cc1)N1CCC(n2cc(-c3ccccc3)nn2)CC1` [Example 80]: 100 to 999 nM; for `O=C(c1ccc(C[C@@H]2CC[C@H]([C@H](O)c3ccccc3)N2)cc1)N1CCC(S(=O)(=O)c2ccc(Cl)cc2)CC1` [Example 136]: 10 to 99.9 nM; for `O=C(c1ccc(C[C@@H]2CC[C@H]([C@H](O)c3cccnc3)N2)cc1)N1CCC(n2cc(-c3ccccc3)[nH]c2=O)CC1` [Example 85]: 10 to 99.9 nM.

The assay is the same for the next values; noted with them: Table 7; cAMP, CHO cells; ranges as given for Tables 6 and 7; read-out: Human β3 agonist functional activity.
Take `O=C(O)C1C2CN(C(=O)c3ccc(CC4CCC(C(O)c5ccccc5)N4)cc3)CC21` (stereo not drawn) [Example 231]: the EC50 was 100 to 999 nM.

Still in this assay, the particulars now being: Table 8; Beta-3 agonist in vitro functional assay; read-out: Human β3 agonist functional activity.
In the case of `O=C(c1ccc(C[C@@H]2CC[C@H]([C@H](O)c3ccccc3)N2)cc1)N1CCC2(CC1)OC(C1CC1)c1ccccc12` (stereo partly drawn) [Example 308], the EC50 was in the range of 10 to 99.9 nM.
Still for that read-out and setting: the same measure for `O=C(c1ccc(C[C@@H]2CC[C@H]([C@H](O)c3ccccc3)N2)cc1)N1CCC(F)(S(=O)(=O)c2ccc(F)cc2)CC1` [Example 240]: 10 to 99.9 nM; for `O=C(c1ccc(C[C@@H]2CC[C@H]([C@H](O)c3ccccc3)N2)cc1)N1CCC2(CC1)C(=O)NCC2c1ccccc1C(F)(F)F` (stereo partly drawn) [Example 265]: 1 to 9.9 nM.
Consider `O=C1NC2(CCN(C(=O)c3ccc(C[C@@H]4CC[C@H]([C@H](O)c5ccccc5)N4)cc3)CC2)Oc2ccccc21` [Example 332], for which the EC50 was 10 to 99.9 nM.
On the same count and under the same terms, the same measure for `O=C1OC2(CCN(C(=O)c3ccc(C[C@@H]4CC[C@H]([C@H](O)c5ccccc5)N4)cc3)CC2)c2cccnc21` [Example 286]: 10 to 99.9 nM.

Staying with this assay, now noted: Table 9; Beta-3 agonist in vitro functional assay; read-out: Human β3 agonist functional activity.
For `O=C(c1ccc(C[C@@H]2CC[C@H]([C@H](O)c3ccccc3)N2)cc1)N1CCN(Cc2ncco2)CC1` [Example 392], the EC50 is 10 to 99.9 nM.
Same read-out and setting: the same measure for `O=C(c1ccc(C[C@@H]2CC[C@H]([C@H](O)c3ccccc3)N2)cc1)N1CCN(c2nccc(-c3ccccc3)n2)CC1` [Example 376]: 10 to 99.9 nM.
On the same count and under the same terms, the same measure for `COC(=O)COc1cccnc1N1CCN(C(=O)c2ccc(C[C@@H]3CC[C@H]([C@H](O)c4ccccc4)N3)cc2)CC1` [Example 368]: 10 to 99.9 nM; for `O=C(c1ccc(C[C@@H]2CC[C@H]([C@H](O)c3ccccc3)N2)cc1)N1CCN(Cc2ccccc2F)CC1` [Example 410]: 10 to 99.9 nM; for `O=C(c1ccc(C[C@@H]2CC[C@H]([C@H](O)c3ccccc3)N2)cc1)N1CCN(c2ccncc2)CC1` [Example 356]: 100 to 999 nM.

The assay is the same for the next values; noted with them: Table 10; Beta-3 agonist in vitro functional assay; read-out: Human β3 agonist functional activity.
For the compound `CC(C(=O)NC(C)(C)CO)N1CCN(C(=O)c2ccc(C[C@@H]3CC[C@H]([C@H](O)c4ccccc4)N3)cc2)CC1` (stereo partly drawn) [Example 444], the EC50 fell in the range of 100 to 999 nM.
On the same count and under the same terms, the same measure for `CC(C(=O)N(C)C(C)(C)C)N1CCN(C(=O)c2ccc(C[C@@H]3CC[C@H]([C@H](O)c4ccccc4)N3)cc2)CC1` (stereo partly drawn) [Example 517]: 100 to 999 nM.
For `CC(C(=O)N1CCCCC12CC2)N1CCN(C(=O)c2ccc(C[C@@H]3CC[C@H]([C@H](O)c4ccccc4)N3)cc2)CC1` (stereo partly drawn) [Example 493], the EC50 is 10 to 99.9 nM.
On to `CC(C(=O)N1CCc2ccc(Cl)cc2C1)N1CCN(C(=O)c2ccc(C[C@@H]3CC[C@H]([C@H](O)c4ccccc4)N3)cc2)CC1` (stereo partly drawn) [Example 510], for which the EC50 was 1 to 9.9 nM.
Still for that read-out and setting: as for `CC(C(=O)N1[C@H]2CC[C@@H]1CC2)N1CCN(C(=O)c2ccc(C[C@@H]3CC[C@H]([C@H](O)c4ccccc4)N3)cc2)CC1` (stereo partly drawn) [Example 501], the figure is 100 to 999 nM.

Still in this assay, the particulars now being: Table 11; cAMP, CHO cells; read-out: Human β3 agonist functional activity.
In the case of `C[C@H](c1ccccn1)N1CC2CCC1CN2C(=O)c1ccc(C[C@@H]2CC[C@H]([C@H](O)c3ccccc3)N2)cc1` (stereo partly drawn) [Example 541], the EC50 lay within 100 to 999 nM.
Take `CC(c1ccccn1)N1C2CCC1CN(C(=O)c1ccc(CC3CCC(C(O)c4ccccc4)N3)cc1)C2` (stereo not drawn) [Example 539]: the EC50 fell in the range of 10 to 99.9 nM.

Still in this assay, the particulars now being: Table 12; human β3 functional activity given as ranges; read-out: Human β3 agonist functional activity.
Consider `O=C(c1ccc(CC2CCC(C(O)c3ccccc3)N2)cc1)N1CCC2(CC1)C(=O)NCC2c1ccc(F)cc1` (single isomer, unassigned) [Example 557], for which the EC50 is 1 to 9.9 nM.
The same measure, in the same setting: the same measure for `O=C1OCCC1N1CCN(C(=O)c2ccc(CC3CCC(C(O)c4ccccc4)N3)cc2)CC1` (single isomer, unassigned) [Example 604]: 1 to 9.9 nM; for `CC(c1cocn1)N1CCN(C(=O)c2ccc(CC3CCC(C(O)c4ccccc4)N3)cc2)CC1` (single isomer, unassigned) [Example 585]: 10 to 99.9 nM.

The assay is the same for the next values; noted with them: given as a range; cAMP, CHO cells; read-out: human β3 functional activity.
Regarding `O=C(c1ccc(C[C@@H]2CC[C@H]([C@H](O)c3ccccc3)N2)cc1)N1CCC(n2cccn2)CC1` [Example 64, (R)-phenyl[(2R,5S)-5-(4-{[4-(1H-pyrazol-1-yl)-piperidin-1-yl]carbonyl}benzyl)pyrrolidine-2-yl]methanol], the EC50 fell in the range of 10 to 99.9 nM.
Turning to `CC(C(=O)N1CCC(F)(F)C1)N1CCN(C(=O)c2ccc(C[C@@H]3CC[C@H]([C@H](O)c4ccccc4)N3)cc2)CC1` (stereo partly drawn) [Example 432, (R)-{(2R,5S)-5-[4-({4-{2-(3,3,-Difluoropyrrolidin-1-yl)-1-methyl-2-oxoethyl]piperazine-1-yl}carbonyl)benzyl}pyrrolidin-2-yl)(phenyl)methanol, TFA salt], the EC50 was 10 to 99.9 nM.
Same read-out and setting: the same measure for `O=C(c1ccc(C[C@@H]2CC[C@H]([C@H](O)c3ccccc3)N2)cc1)N1C[C@@H]2C(n3cnnn3)[C@@H]2C1` (stereo partly drawn) [Example 169, (R)-phenyl[(2R,5S)-5-(4-{[(1R,5S,6r)-6-(1H-tetraol-1-yl)-3-azabicyclo[3.1.0]hex-3yl]carbonyl}benzyl)pyrrolidine-2-yl]methanol]: 1 to 9.9 nM.
